Assay results reported in paper PMC8470881, “Membrane Interactions of Latarcins: Antimicrobial Peptides from Spider Venom” (International Journal of Molecular Sciences, 2021).

test system: human red blood cells; assay: Hemolysis assay; conditions: peptide concentration 256 µg/mL, 30 min, 37 °C
Experimental: A hemolysis assay was performed to determine the activity of latarcins against human red blood cells, allowing us to compare the results to those of previous experiments in which rabbit erythrocytes were used. The activity was determined for each latarcin as a function of increasing concentration, up to a maximum of 256 µg of peptides per mL. […] The percentage hemolysis of the other peptides was determined at the highest tested concentration of 256 µg/mL.
The influence of latarcins on human erythrocytes was determined by using a hemolysis assay modified from previously published methods. Blood was obtained from the blood bank of the local hospital in Karlsruhe and stabilized with citrate phosphate dextrose buffer. Erythrocyte suspension (5 mL) was taken up in Tris buffer (45 mL, 172 mM, pH 7.6) at room temperature, gently mixed, and centrifuged (1500 rpm, 10 min). The supernatant solution was removed, and Tris wash was repeated twice with 45 mL as above. The washed erythrocytes (1 mL) were suspended in 9 mL Tris buffer to make the stock cell suspension, which was then further diluted to 0.25% (v/v) at 37 °C before use. Peptide stock solutions were prepared with 1024 µg/mL in Tris buffer containing 10% DMSO, and serial dilutions were prepared in the range of 512 µg/mL to 2 µg/mL as described previously. For the positive control, Triton X-100 (200 µL of 0.2% v/v) was used, and as the negative control, Tris buffer (200 µL, 172 mM) was used. Erythrocyte stock cell suspension (200 µL) was added to each of the samples and incubated for 30 min at 37 °C with gentle shaking before determining the percentage of hemolysis as described previously.

Substance	% Hemolysis [%]
G E TF D K L K E K L K TFYQ K LV E K A ED L K G D L K A K LS-acid [Ltc7]	2
H-GFFGKMKEYFKKFGASFKRRFANLKKRL-NH2 [Ltc5]	27
H-GLKDKFKSMGEKLKQYIQTWKAKF-NH2 [Ltc4a]	12
H-QAFQTFKPDWNKIRYDAMKMQTSLGQMKKRFNL-OH [Ltc6a]	3
H-SWKSMAKKLKEYMEKLKQRA-NH2 [Ltc3a]	16
